Measured values published in PubChem BioAssay (NCI).
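Method: 48-hour compound exposure of cells in 96-well plates, five concentrations, linear interpolation of endpoints. TGI marks complete inhibition of growth.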

How the values were obtained:
Assay in all cases: NCI anticancer screen, dose series, 48 h
TK-10 renal = tested on: TK-10 renal
DMS 114 small cell lung = tested on: DMS 114 small cell lung
A549 NSCLC = tested on: A549 NSCLC
NCI-H522 lung = tested on: NCI-H522 lung
A498 renal = tested on: A498 renal
SF-295 CNS = tested on: SF-295 CNS
MALME-3M melanoma = tested on: MALME-3M melanoma
786-0 renal = tested on: 786-0 renal
COLO 205 colon = tested on: COLO 205 colon
SF-268 CNS = tested on: SF-268 CNS
M14 melanoma = tested on: M14 melanoma
HL-60(TB) leukemia = tested on: HL-60(TB) leukemia
RXF-631 renal = tested on: RXF-631 renal
NCI-H460 lung = tested on: NCI-H460 lung
IGROV1 ovarian = tested on: IGROV1 ovarian
SNB-78 CNS = tested on: SNB-78 CNS
HT29 colon = tested on: HT29 colon
KM12 colon = tested on: KM12 colon
NCI-H23 lung = tested on: NCI-H23 lung
DLD-1 colon = tested on: DLD-1 colon
RXF 393 renal = tested on: RXF 393 renal
M19-MEL melanoma = tested on: M19-MEL melanoma
SNB-19 CNS = tested on: SNB-19 CNS
XF 498 CNS = tested on: XF 498 CNS
LXFL 529 NSCLC = tested on: LXFL 529 NSCLC
ACHN renal = tested on: ACHN renal
HCT-15 colon = tested on: HCT-15 colon
SW-620 colon = tested on: SW-620 colon
DMS 273 small cell lung = tested on: DMS 273 small cell lung
OVCAR-4 ovarian = tested on: OVCAR-4 ovarian
NCI-H226 lung = tested on: NCI-H226 lung
SK-MEL-5 melanoma = tested on: SK-MEL-5 melanoma
UACC-62 melanoma = tested on: UACC-62 melanoma
U251 CNS = tested on: U251 CNS
OVCAR-8 ovarian = tested on: OVCAR-8 ovarian
SNB-75 CNS = tested on: SNB-75 CNS
SK-MEL-28 melanoma = tested on: SK-MEL-28 melanoma
SK-MEL-2 melanoma = tested on: SK-MEL-2 melanoma
HCC-2998 colon = tested on: HCC-2998 colon
HOP-18 NSCLC = tested on: HOP-18 NSCLC
OVCAR-5 ovarian = tested on: OVCAR-5 ovarian
HOP-62 NSCLC = tested on: HOP-62 NSCLC
UACC-257 melanoma = tested on: UACC-257 melanoma
HOP-92 NSCLC = tested on: HOP-92 NSCLC
HCT-116 colon = tested on: HCT-116 colon
CAKI-1 renal = tested on: CAKI-1 renal
UO-31 renal = tested on: UO-31 renal
SF-539 CNS = tested on: SF-539 CNS
SK-OV-3 ovarian = tested on: SK-OV-3 ovarian
EKVX NSCLC = tested on: EKVX NSCLC
SN12C renal = tested on: SN12C renal
MOLT-4 leukemia = tested on: MOLT-4 leukemia
OVCAR-3 ovarian = tested on: OVCAR-3 ovarian
KM20L2 colon = tested on: KM20L2 colon

Measured: TGI

Cc1ccc(NC(=O)C2C(=O)N(c3ccc(C)c(C)c3)C(=O)C2N=N)cc1C (centres undefined)
> 100 µM: TK-10 renal | DMS 114 small cell lung | A549 NSCLC | NCI-H522 lung | A498 renal | SF-295 CNS | MALME-3M melanoma | 786-0 renal | COLO 205 colon | SF-268 CNS | M14 melanoma | HL-60(TB) leukemia | RXF-631 renal | NCI-H460 lung | IGROV1 ovarian | SNB-78 CNS | HT29 colon | KM12 colon | NCI-H23 lung | DLD-1 colon | RXF 393 renal | M19-MEL melanoma | SNB-19 CNS | XF 498 CNS | LXFL 529 NSCLC | ACHN renal | HCT-15 colon | SW-620 colon | DMS 273 small cell lung | OVCAR-4 ovarian | NCI-H226 lung | SK-MEL-5 melanoma | UACC-62 melanoma | U251 CNS | OVCAR-8 ovarian | SNB-75 CNS | SK-MEL-28 melanoma | SK-MEL-2 melanoma | HCC-2998 colon | HOP-18 NSCLC | OVCAR-5 ovarian | HOP-62 NSCLC | UACC-257 melanoma | HOP-92 NSCLC | HCT-116 colon | CAKI-1 renal | UO-31 renal | SF-539 CNS | SK-OV-3 ovarian | EKVX NSCLC | SN12C renal | MOLT-4 leukemia | OVCAR-3 ovarian | KM20L2 colon
